EP0010667A1, “Cepham compounds, pharmaceutical compositions containing them and processes for the preparation thereof and of known cephem compounds” (FUJISAWA PHARMACEUTICAL CO., LTD., priority 1978, dated 1980)
In brackets after ≈: the same amount, converted by molar mass.

Tests used:
[1] = tested on: Proteus mirabilis 18; assay: In vitro antibacterial activity, two-fold agar-plate dilution method; type: cell-based; conditions: heart infusion agar (HI-agar), incubated at 37°C for 20 hours
Experimental: (§1) In vitro antibacterial activity was determined by the two-fold agar-plate dilution'method as described below. One loopful of an overnight culture of each test strain in Trypticase soy broth was streaked on heart infusion agar (HI-agar) containing graded concentration of the test compound and incubated at 37°C for 20 hours. The minimal inhibitory concentration (MIC) was expressed in µg/m1.

[2] = tested on: Klebsiella pneumoniae 20; assay: as above; type: cell-based; conditions: heart infusion agar (HI-agar), incubated at 37°C for 20 hours
Experimental: as §1

`CO/N=C(\C(=O)NC1C(=O)N2C(C(=O)O)C(=COC(C)=O)CSC12)c1csc(N)n1` (stereo not drawn) [Test compound, 7-[2-(2-Aminothiazol-4-yl)-2-methoxyimino-acetamido]-3-acetoxymethylenecepham-4-carboxylic acid (syn isomer)] was tested. Which MIC [1] did it give?
Its MIC is 6.25 µg/mL (≈ 13.7 µM).

What about the MIC [2] of the same molecule?
The MIC was 6.25 µg/mL (≈ 13.7 µM).
